In the NIST ThermoML archive (doi:10.1021/acs.jced.5b00385):
± gives the expanded uncertainty stated by the source.

Conditions: Liquid, Vibrating tube method

CCCCC(CC)COC(C)=O (centres undefined) [2-ethylhexyl acetate]
Conditions | mass density [kg/m3]
283.45 K, 80000 kPa | 925.84 ± 1
283.45 K, 90000 kPa | 930.33 ± 1.1
283.45 K, 100000 kPa | 934.63 ± 1.1
283.46 K, 100 kPa | 880.38 ± 0.91
283.46 K, 1000 kPa | 881.05 ± 0.91
283.46 K, 40000 kPa | 905.65 ± 0.97
283.46 K, 50000 kPa | 911.06 ± 0.99
283.46 K, 60000 kPa | 916.18 ± 1
283.46 K, 70000 kPa | 921.22 ± 1
283.47 K, 3000 kPa | 882.48 ± 0.91
283.47 K, 5000 kPa | 883.9 ± 0.91
283.47 K, 30000 kPa | 899.95 ± 0.95
283.48 K, 10000 kPa | 887.37 ± 0.92
283.48 K, 15000 kPa | 890.63 ± 0.93
283.48 K, 20000 kPa | 893.87 ± 0.94
283.48 K, 25000 kPa | 896.91 ± 0.95
293.44 K, 1000 kPa | 872.61 ± 0.9
293.44 K, 3000 kPa | 874.12 ± 0.9
293.45 K, 5000 kPa | 875.6 ± 0.91
293.45 K, 10000 kPa | 879.24 ± 0.92
293.45 K, 15000 kPa | 882.73 ± 0.92
293.45 K, 20000 kPa | 886.08 ± 0.93
293.45 K, 25000 kPa | 889.32 ± 0.94
293.45 K, 30000 kPa | 892.46 ± 0.95
293.45 K, 40000 kPa | 898.43 ± 0.97
293.45 K, 60000 kPa | 909.42 ± 1
293.45 K, 70000 kPa | 914.46 ± 1
293.45 K, 80000 kPa | 919.33 ± 1
293.45 K, 100000 kPa | 928.38 ± 1.1
293.46 K, 100 kPa | 871.89 ± 0.9
293.46 K, 50000 kPa | 904.07 ± 0.99
293.46 K, 90000 kPa | 923.91 ± 1.1
303.38 K, 1000 kPa | 863.7 ± 0.89
303.39 K, 3000 kPa | 865.32 ± 0.89
303.39 K, 15000 kPa | 874.36 ± 0.92
303.39 K, 40000 kPa | 890.82 ± 0.97
303.4 K, 5000 kPa | 866.89 ± 0.9
303.4 K, 10000 kPa | 870.7 ± 0.91
303.4 K, 20000 kPa | 877.88 ± 0.93
303.4 K, 25000 kPa | 881.31 ± 0.94
303.4 K, 30000 kPa | 884.55 ± 0.95
303.4 K, 50000 kPa | 896.67 ± 0.98
303.4 K, 60000 kPa | 902.22 ± 1
303.4 K, 70000 kPa | 907.5 ± 1
303.4 K, 80000 kPa | 912.5 ± 1
303.4 K, 90000 kPa | 917.28 ± 1.1
303.41 K, 100 kPa | 862.94 ± 0.89
303.41 K, 100000 kPa | 921.87 ± 1.1
313.34 K, 100 kPa | 854.53 ± 0.88
313.34 K, 1000 kPa | 855.28 ± 0.88
313.34 K, 3000 kPa | 857.04 ± 0.89
313.34 K, 5000 kPa | 858.73 ± 0.89
313.34 K, 10000 kPa | 862.77 ± 0.9
313.34 K, 15000 kPa | 866.66 ± 0.91
313.34 K, 20000 kPa | 870.34 ± 0.92
313.34 K, 25000 kPa | 873.92 ± 0.93
313.34 K, 30000 kPa | 877.34 ± 0.94
313.34 K, 40000 kPa | 883.88 ± 0.96
313.34 K, 50000 kPa | 889.98 ± 0.98
313.34 K, 60000 kPa | 895.7 ± 1
313.34 K, 70000 kPa | 901.14 ± 1
313.34 K, 80000 kPa | 906.27 ± 1.1
313.34 K, 100000 kPa | 915.93 ± 1.1
313.35 K, 90000 kPa | 911.19 ± 1.1
323.15 K, 100 kPa | 845.74 ± 0.87
323.15 K, 50000 kPa | 882.8 ± 0.98
323.15 K, 60000 kPa | 888.76 ± 1
323.15 K, 70000 kPa | 894.49 ± 1
323.15 K, 80000 kPa | 899.83 ± 1.1
323.15 K, 90000 kPa | 904.91 ± 1.1
323.15 K, 100000 kPa | 909.78 ± 1.1
323.16 K, 1000 kPa | 846.56 ± 0.87
323.16 K, 3000 kPa | 848.36 ± 0.88
323.16 K, 5000 kPa | 850.14 ± 0.88
323.16 K, 10000 kPa | 854.42 ± 0.89
323.16 K, 25000 kPa | 866.13 ± 0.93
323.16 K, 30000 kPa | 869.71 ± 0.94
323.16 K, 40000 kPa | 876.47 ± 0.96
323.17 K, 15000 kPa | 858.49 ± 0.91
323.17 K, 20000 kPa | 862.39 ± 0.92
332.99 K, 100 kPa | 836.98 ± 0.86
333 K, 1000 kPa | 837.85 ± 0.87
333 K, 3000 kPa | 839.78 ± 0.87
333 K, 5000 kPa | 841.66 ± 0.88
333 K, 10000 kPa | 846.16 ± 0.89
333 K, 15000 kPa | 850.47 ± 0.9
333 K, 20000 kPa | 854.55 ± 0.91
333 K, 25000 kPa | 858.45 ± 0.92
333.01 K, 30000 kPa | 862.21 ± 0.93
333.01 K, 40000 kPa | 869.27 ± 0.96
333.01 K, 50000 kPa | 875.85 ± 0.98
333.01 K, 60000 kPa | 882.02 ± 1
333.01 K, 70000 kPa | 888.07 ± 1
333.01 K, 80000 kPa | 893.58 ± 1.1
333.01 K, 90000 kPa | 898.82 ± 1.1
333.01 K, 100000 kPa | 903.81 ± 1.1
342.95 K, 100 kPa | 828.32 ± 0.86
342.96 K, 1000 kPa | 829.27 ± 0.86
342.96 K, 3000 kPa | 831.31 ± 0.86
342.96 K, 5000 kPa | 833.3 ± 0.87
342.96 K, 10000 kPa | 838.06 ± 0.88
342.96 K, 15000 kPa | 842.59 ± 0.89
342.96 K, 20000 kPa | 846.9 ± 0.91
342.97 K, 25000 kPa | 851 ± 0.92
342.97 K, 30000 kPa | 854.91 ± 0.93
342.97 K, 40000 kPa | 862.31 ± 0.96
342.97 K, 50000 kPa | 869.15 ± 0.98
342.97 K, 60000 kPa | 875.57 ± 1
342.97 K, 70000 kPa | 881.64 ± 1
342.97 K, 80000 kPa | 887.28 ± 1.1
342.97 K, 90000 kPa | 892.73 ± 1.1
342.97 K, 100000 kPa | 897.85 ± 1.1
352.78 K, 100 kPa | 819.64 ± 0.85
352.79 K, 1000 kPa | 820.65 ± 0.85
352.79 K, 3000 kPa | 822.83 ± 0.86
352.79 K, 5000 kPa | 824.93 ± 0.86
352.79 K, 10000 kPa | 830 ± 0.87
352.79 K, 15000 kPa | 834.75 ± 0.89
352.79 K, 20000 kPa | 839.27 ± 0.9
352.79 K, 25000 kPa | 843.56 ± 0.91
352.79 K, 30000 kPa | 847.66 ± 0.93
352.79 K, 40000 kPa | 855.34 ± 0.96
352.79 K, 50000 kPa | 862.46 ± 0.98
352.79 K, 60000 kPa | 869.08 ± 1
352.79 K, 70000 kPa | 875.42 ± 1
352.79 K, 90000 kPa | 886.84 ± 1.1
352.79 K, 100000 kPa | 892.14 ± 1.1
352.8 K, 80000 kPa | 881.29 ± 1.1
362.64 K, 100 kPa | 810.91 ± 0.84
362.64 K, 1000 kPa | 811.97 ± 0.84
362.64 K, 3000 kPa | 814.28 ± 0.85
362.64 K, 5000 kPa | 816.51 ± 0.85
362.64 K, 10000 kPa | 821.85 ± 0.87
362.64 K, 15000 kPa | 826.87 ± 0.88
362.64 K, 20000 kPa | 831.61 ± 0.9
362.64 K, 25000 kPa | 836.09 ± 0.91
362.64 K, 30000 kPa | 840.38 ± 0.92
362.64 K, 50000 kPa | 855.78 ± 0.98
362.64 K, 60000 kPa | 862.65 ± 1
362.64 K, 70000 kPa | 869.14 ± 1
362.64 K, 80000 kPa | 875.25 ± 1.1
362.64 K, 90000 kPa | 880.97 ± 1.1
362.64 K, 100000 kPa | 886.45 ± 1.1
362.65 K, 40000 kPa | 848.4 ± 0.95
